The text below walks through data of article doi:10.1101/2025.01.02.631061v1 (biorxiv, 2025).

The test system of assay [1] is UnBGl1. The note with it: pH 6.0, 50 °C, 30 min.
Assay [2] has as its system UnBGl1. The following applies: optimum pH 5.5, 50 °C, 30 min.
For assay [3], the system named is UnBGl1. The note with it: pH 6.0, 55 °C, 10 min.
Assay [4] has as its system UnBGl1. Description: pNP release, absorbance […] nm, Michaelis-Menten. The format is biochemical, soil metagenome. The note with it: pH 6.0, 55 °C, 10 min.
Assay [5] has as its system UnBGl1. The note with it: optimum pH 6.5, 55 °C, 10 min.

Where two headings read alike, the source gives them in different places.

Regarding `OC[C@H]1O[C@@H](O[C@H]2[C@H](O)[C@@H](O)C(O)O[C@@H]2CO)[C@H](O)[C@@H](O)[C@@H]1O` (some centres unmarked) [cellobiose], the Km in the assay on UnBGl1 [1] was determined as 34.6 ± 2.4 mM; in the assay with UnBGl1 [2], 22.9 ± 1.1 mM.

Take `O=[N+]([O-])c1ccc(O[C@@H]2O[C@H](CO)[C@@H](O)[C@H](O)[C@H]2O)cc1` [4-nitrophenyl β-D-glucopyranoside]: the Michaelis-Menten constant (Km) in the assay with UnBGl1 [3] was 7.35 ± 3 mM; in the assay on UnBGl1 [4] it was 0.92 ± 0.05 mM; with UnBGl1 [5] it was 0.65 ± 0.04 mM.
